Results as given in US6562828B1, “Amidine compounds” (Japan Tobacco Inc., priority 1998, dated 2003).
pIC50: −log10 of the molar value. Structures can show the parent of a compound that is named as a salt.

Biological target: T1, Human FXa (Homo sapiens, UniProt P00742)
T1 construct: Human FXa [Enzyme research Laboratories (USA)] enzyme; purchased Enzyme Research Laboratories (USA)
Experiment: Determination of anti-factor Xa (FXa) activity, synthetic substrate S-2222
Format: biochemical
Conditions: S-2222, 37° C., pH 8.4, read-out: Experimental Example 1: anti-FXa activity, IC50
Procedure: Determination of Anti-factor Xa (FXa) Activity
Human FXa [Enzyme research Laboratories (USA)] enzyme (40 μl, 0.16U/ml) and test compounds (40 l) adjusted to various concentrations were incubated in 0.1M Tris (Tris-hydroxymethyl-aminomethane) buffer (pH 8.4) containing 0.2M sodium chloride (herein to be referred to as 0.1 M tris-0.2M NaCl buffer) (40 μl) at 37° C. for 10 min. A synthetic substrate S-2222 (Daiichi Pure Chemical (Tokyo, Japan), 40 μl) adjusted to 0.8 mM was added and the mixture was incubated at 37° C. for 10 min. The reaction was stopped by addition of 60% acetic acid (40 μl) and absorbance at 405 nm was measured by Model 3550 (BIO-RAD). For the control, the solvent was used instead of the test compound.

T1 sequence (P00742 235-488 limits assumed): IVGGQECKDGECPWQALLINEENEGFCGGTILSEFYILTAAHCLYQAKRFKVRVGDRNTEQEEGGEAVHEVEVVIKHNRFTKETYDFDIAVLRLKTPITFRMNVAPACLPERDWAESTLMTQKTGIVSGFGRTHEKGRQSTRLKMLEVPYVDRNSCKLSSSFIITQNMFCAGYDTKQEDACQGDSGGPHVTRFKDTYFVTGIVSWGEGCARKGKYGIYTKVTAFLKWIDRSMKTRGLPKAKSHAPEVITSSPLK
T1 sequence (P00742 41-179 partner limits assumed): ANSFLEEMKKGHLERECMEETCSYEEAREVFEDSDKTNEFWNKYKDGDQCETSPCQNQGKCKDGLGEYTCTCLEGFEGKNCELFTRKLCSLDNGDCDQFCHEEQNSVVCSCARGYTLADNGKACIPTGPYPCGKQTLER

pIC50: 8.52
SMILES: CC(=N)N1CCC(Oc2ccc(N(Cc3nc4cc(C(=N)N)ccc4n3CC(=O)N[C@@H](C)c3ccccc3)C(=O)c3ccc(C(=O)O)cc3)cc2)CC1 [Example 17, (S)-4-[N-[5-Amidino-1-(1-phenylethylcarbamoylmethyl)benzimidazole-2-ylmethyl]-N-[4-(1-acetimidoylpiperidin-4-yloxy)phenyl]carbamoyl]benzoic Acid Dihydrochloride]
